Bounds are passed on as bounds.

Data set [1] has as its target T1, A disintegrin and metalloproteinase with thrombospondin motifs 5 (Bos taurus) (UniProt Q9TT92).
T1 sequence (whole entry): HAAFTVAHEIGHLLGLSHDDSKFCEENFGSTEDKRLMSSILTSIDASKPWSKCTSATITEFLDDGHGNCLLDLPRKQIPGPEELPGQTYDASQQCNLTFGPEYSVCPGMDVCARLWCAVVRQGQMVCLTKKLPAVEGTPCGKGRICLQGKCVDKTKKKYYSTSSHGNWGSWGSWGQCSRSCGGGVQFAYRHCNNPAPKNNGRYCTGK
The experiment in a line: Ex vivo inhibition of ADAMTS-5-mediated aggrecan degradation in IL-1-stimulated bovine cartilage explant at 30 uM.

For data set [2], the target named is T2, A disintegrin and metalloproteinase with thrombospondin motifs 5 (Bos taurus, UniProt Q9TT92).
T2 sequence (Q9TT92 whole entry): T1 sequence (whole entry)
The experiment in a line: Ex vivo inhibition of ADAMTS-5-mediated aggrecan degradation in IL-1-stimulated bovine cartilage explant.

Data set [3] in a line: Apparent permeability from apical to basolateral side of MDCK cells by transwell assay. The data set is classed as ADME, cell-based, Canis lupus familiaris. The settings on record: dog.
Data set [4] is described as follows: Intrinsic clearance in […]. The data set is classed as ADME.
Data set [5] deals with Disintegrin and metalloproteinase domain-containing protein 17 (Homo sapiens, UniProt P78536). The experiment in a line: Inhibition of TACE (unknown origin).
Disintegrin and metalloproteinase domain-containing protein 17, sequence (P78536 whole entry, the tested form may be a part): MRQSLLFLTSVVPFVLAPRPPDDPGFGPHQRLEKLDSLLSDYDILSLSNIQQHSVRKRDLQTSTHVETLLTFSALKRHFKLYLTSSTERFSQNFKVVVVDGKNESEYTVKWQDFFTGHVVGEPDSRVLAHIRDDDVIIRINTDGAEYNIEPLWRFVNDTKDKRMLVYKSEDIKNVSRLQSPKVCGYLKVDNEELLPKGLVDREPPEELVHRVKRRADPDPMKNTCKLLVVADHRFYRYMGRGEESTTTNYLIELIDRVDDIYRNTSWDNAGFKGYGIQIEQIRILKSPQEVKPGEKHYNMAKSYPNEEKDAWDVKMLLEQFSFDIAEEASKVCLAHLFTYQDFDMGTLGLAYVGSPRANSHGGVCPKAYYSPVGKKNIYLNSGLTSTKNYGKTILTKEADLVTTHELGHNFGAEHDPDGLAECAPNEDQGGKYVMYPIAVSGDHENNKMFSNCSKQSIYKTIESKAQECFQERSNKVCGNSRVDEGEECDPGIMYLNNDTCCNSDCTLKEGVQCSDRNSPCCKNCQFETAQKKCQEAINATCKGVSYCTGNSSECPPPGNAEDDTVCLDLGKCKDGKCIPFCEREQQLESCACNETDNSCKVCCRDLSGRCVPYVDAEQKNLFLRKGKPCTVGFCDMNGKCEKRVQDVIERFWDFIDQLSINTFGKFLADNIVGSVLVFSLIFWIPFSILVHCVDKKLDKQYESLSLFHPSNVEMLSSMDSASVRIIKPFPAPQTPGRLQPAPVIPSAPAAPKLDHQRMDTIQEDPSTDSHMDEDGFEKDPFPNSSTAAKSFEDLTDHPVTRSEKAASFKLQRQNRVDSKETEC
The target of data set [6] is Matrix metalloproteinase-14 (Homo sapiens, UniProt P50281). The experiment in a line: Inhibition of MMP14 (unknown origin) by FRET method.
A further data set concerns the target Stromelysin-1 (Homo sapiens, UniProt P08254). The experiment in a line: Inhibition of MMP3 (unknown origin) by FRET method.
Data set [7] addresses T3, A disintegrin and metalloproteinase with thrombospondin motifs 13 (Homo sapiens, UniProt Q76LX8).
T3 sequence (Q76LX8 whole entry): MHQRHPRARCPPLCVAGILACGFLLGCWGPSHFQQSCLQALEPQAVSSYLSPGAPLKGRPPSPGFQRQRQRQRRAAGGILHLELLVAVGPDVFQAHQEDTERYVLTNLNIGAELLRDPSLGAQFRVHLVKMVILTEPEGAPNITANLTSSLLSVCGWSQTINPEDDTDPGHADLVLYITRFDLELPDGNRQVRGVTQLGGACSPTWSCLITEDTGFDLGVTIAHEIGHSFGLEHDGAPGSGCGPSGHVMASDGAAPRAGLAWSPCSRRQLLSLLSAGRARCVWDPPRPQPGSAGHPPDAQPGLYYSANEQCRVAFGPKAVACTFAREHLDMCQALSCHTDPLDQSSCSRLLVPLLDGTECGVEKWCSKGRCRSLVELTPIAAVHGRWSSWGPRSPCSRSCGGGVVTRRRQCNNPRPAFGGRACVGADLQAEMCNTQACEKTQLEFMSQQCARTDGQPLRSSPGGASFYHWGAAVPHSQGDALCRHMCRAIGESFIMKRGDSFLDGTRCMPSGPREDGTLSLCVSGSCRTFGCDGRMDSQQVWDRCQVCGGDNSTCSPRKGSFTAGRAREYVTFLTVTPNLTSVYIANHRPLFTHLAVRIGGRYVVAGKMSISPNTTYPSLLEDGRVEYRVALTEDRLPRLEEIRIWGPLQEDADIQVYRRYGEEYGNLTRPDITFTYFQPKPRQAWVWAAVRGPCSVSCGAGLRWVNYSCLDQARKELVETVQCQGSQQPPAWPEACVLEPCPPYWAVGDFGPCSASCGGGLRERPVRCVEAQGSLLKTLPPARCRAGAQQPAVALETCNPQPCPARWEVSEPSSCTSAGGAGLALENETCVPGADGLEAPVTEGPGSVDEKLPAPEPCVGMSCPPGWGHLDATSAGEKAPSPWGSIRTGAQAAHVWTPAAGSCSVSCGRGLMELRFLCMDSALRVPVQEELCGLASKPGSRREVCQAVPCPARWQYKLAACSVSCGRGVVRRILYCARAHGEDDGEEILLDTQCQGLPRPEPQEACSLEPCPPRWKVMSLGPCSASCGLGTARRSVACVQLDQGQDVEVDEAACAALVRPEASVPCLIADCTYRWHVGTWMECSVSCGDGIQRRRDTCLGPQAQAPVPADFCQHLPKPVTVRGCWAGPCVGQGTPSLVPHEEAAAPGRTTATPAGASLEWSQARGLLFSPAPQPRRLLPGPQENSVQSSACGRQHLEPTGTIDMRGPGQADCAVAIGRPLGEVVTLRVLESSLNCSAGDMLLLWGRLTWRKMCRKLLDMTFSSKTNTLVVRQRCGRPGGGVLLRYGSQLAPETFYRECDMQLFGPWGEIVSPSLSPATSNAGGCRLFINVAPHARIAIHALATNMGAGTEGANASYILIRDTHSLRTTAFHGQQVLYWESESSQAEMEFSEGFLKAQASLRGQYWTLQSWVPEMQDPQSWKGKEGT
Briefly: Inhibition of ADAMTS-13 (unknown origin).

Data set [8] has as its target 72 kDa type IV collagenase (Homo sapiens, UniProt P08253). Briefly: Inhibition of MMP2 (unknown origin) by FRET method.
For data set [9], the target named is T4, A disintegrin and metalloproteinase with thrombospondin motifs 4 (Homo sapiens, UniProt O75173).
T4 sequence (O75173 whole entry): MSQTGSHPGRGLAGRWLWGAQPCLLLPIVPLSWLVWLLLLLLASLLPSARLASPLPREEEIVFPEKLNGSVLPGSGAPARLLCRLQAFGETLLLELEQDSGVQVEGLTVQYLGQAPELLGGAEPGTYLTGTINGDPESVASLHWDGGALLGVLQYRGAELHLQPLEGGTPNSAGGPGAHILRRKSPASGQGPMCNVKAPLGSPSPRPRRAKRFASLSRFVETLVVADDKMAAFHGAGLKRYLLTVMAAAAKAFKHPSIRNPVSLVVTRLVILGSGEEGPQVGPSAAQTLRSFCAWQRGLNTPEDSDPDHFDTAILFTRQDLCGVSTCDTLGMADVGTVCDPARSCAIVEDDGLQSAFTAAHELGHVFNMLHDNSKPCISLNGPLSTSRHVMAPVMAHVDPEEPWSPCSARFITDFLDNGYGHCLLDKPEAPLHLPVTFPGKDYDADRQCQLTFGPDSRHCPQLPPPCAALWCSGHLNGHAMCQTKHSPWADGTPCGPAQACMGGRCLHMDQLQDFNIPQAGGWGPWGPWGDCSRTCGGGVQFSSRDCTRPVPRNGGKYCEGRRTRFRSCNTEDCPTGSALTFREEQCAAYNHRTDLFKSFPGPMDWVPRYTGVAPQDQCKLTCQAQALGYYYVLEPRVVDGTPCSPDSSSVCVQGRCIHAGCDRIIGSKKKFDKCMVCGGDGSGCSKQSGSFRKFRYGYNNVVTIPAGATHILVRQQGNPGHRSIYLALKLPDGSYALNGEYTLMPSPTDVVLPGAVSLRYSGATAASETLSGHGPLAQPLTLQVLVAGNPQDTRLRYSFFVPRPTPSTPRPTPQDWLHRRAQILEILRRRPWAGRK
Briefly: Inhibition of ADAMTS-4 (unknown origin) by FRET method.

72 kDa type IV collagenase, sequence (P08253 whole entry): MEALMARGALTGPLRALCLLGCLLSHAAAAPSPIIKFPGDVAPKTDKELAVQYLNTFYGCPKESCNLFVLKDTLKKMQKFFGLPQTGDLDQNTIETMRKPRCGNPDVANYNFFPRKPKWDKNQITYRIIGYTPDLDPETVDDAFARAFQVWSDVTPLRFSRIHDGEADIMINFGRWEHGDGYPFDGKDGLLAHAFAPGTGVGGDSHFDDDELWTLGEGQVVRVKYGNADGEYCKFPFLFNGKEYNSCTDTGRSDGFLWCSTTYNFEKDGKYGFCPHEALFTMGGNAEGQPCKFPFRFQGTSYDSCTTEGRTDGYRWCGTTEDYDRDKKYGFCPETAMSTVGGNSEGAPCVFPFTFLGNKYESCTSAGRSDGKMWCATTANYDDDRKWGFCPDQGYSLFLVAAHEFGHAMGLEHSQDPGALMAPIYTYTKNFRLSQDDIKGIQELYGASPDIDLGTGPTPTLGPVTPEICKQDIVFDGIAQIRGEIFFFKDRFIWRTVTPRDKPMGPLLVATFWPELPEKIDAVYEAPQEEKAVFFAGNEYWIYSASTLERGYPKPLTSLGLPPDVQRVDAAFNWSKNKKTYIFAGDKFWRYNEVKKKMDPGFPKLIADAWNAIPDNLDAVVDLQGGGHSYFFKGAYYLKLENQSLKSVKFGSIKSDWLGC
Stromelysin-1, sequence (P08254 whole entry): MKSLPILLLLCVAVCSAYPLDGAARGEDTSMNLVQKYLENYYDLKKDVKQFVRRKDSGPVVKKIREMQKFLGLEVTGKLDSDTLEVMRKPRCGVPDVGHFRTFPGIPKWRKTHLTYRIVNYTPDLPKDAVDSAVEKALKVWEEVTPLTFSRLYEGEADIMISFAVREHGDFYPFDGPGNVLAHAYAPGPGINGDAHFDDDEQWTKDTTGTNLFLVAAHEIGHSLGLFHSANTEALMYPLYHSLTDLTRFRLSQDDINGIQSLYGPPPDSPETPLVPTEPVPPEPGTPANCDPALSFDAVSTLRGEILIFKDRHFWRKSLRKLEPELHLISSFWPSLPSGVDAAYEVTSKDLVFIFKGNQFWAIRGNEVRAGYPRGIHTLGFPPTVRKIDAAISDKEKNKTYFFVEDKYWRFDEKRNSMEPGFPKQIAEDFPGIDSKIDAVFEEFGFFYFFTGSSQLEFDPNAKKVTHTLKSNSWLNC

The inhibition is the relative decrease from the control value, in per cent. Read a low inhibition as little suppression. As a reminder, the IC50 is the concentration at which inhibition is half-maximal. As usually defined, the Papp A→B is the apparent permeability from the apical to the basolateral side of a cell layer. What is called CLint scaled is a measure of how fast metabolising enzymes remove a compound, apart from limits set by blood flow. In the case of `O=C(O)CCc1sc(/C=C2\NC(=O)CS2)nc1-c1ccccn1`, the inhibition in [1] was determined as 66%. Further, the IC50 is 22 µM in [2]; over 30 µM in [5]; 24 µM in [6]; over 30 µM on Stromelysin-1; 20 µM in data set [7]; over 30 µM in data set [8]. This molecule also displayed an IC50 in data set [9] of 23 µM. Moreover, the Papp A→B in data set [3] came to 55.5 nm/s. In addition, the CLint scaled in data set [4] amounted to 0.162 L/h/kg.

Source of the values: ChEMBL document CHEMBL2346648, “A series of thiazole derivatives bearing thiazolidin-4-one as non-competitive ADAMTS-5 (aggrecanase-2) inhibitors” (Bioorg Med Chem Lett, 2013).
